Measured values taken from patent US8367873B2, “Phenyl-substituted bicyclooctane-1,3-dione derivatives” (Bayer Cropscience AG, priority 2008, dated 2013).

What was measured:
Type in all cases: in vivo
[1] = system: monocotylidonous and dicotylidonous weed and crop plants; test: Herbicidal pre-emergence action (other test plants); details: pre-emergence method, 80 g/ha, greenhouse, visual assessment vs untreated controls
Source text: Seeds of monocotylidonous and dicotylidonous weed and crop plants are placed in sandy loam in wood fibre pots and covered with soil. The test compounds, formulated in the form of wettable powders (WP), are then, as an aqueous suspension with a water application rate of 600 l/ha (converted), with 0.2% of wetting agent added, applied to the surface of the covering soil in different amounts.
After the treatment, the pots are placed in a greenhouse and kept under good growth conditions for the test plants. The visual assessment of the emergence damage on the test plants is carried out after a trial period of three weeks by comparison with the untreated controls (herbicidal effect in percent: 100% effect=the plants have died, 0% effect=like control plants).

[2] = system: monocotylidonous and dicotylidonous weed and crop plants; test: Herbicidal post-emergence action (other test plants); details: post-emergence method, 80 g/ha
In short: (§1)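 One-leaf-stage greenhouse plants sprayed with WP at graded amounts (600 l/ha, 0.2% wetting agent); ~3 wk later, visual % effect rated vs untreated controls, 100% = dead, 0% = like control.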

[3] = system: Alopecurus myosuroides; test: Herbicidal post-emergence action; details: post-emergence method, 80 g/ha
In short: as §1

[4] = system: Setaria viridis; test: Herbicidal post-emergence action; details: post-emergence method, 80 g/ha
In short: as §1

[5] = system: Lolium multiflorum; test: Herbicidal post-emergence action; details: post-emergence method, 80 g/ha
In short: as §1

[6] = system: Echinocloa crus-galli; test: Herbicidal post-emergence action; details: post-emergence method, 80 g/ha
In short: as §1

[7] = system: Alopecurus myosuroides; test: Herbicidal pre-emergence action; details: pre-emergence method, 80 g/ha, greenhouse, visual assessment vs untreated controls
In short: (§2)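 Visual percent effect relative to untreated controls (0% = like control, 100% = dead) assessed three weeks after treatment in the greenhouse. Compounds, as wettable powders in water (600 l/ha, 0.2% wetting agent), were sprayed at different amounts onto covering soil over seeds sown in sandy loam.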

[8] = system: Setaria viridis; test: Herbicidal pre-emergence action; details: pre-emergence method, 80 g/ha, greenhouse, visual assessment vs untreated controls
In short: as §2

[9] = system: Lolium multiflorum; test: Herbicidal pre-emergence action; details: pre-emergence method, 80 g/ha, greenhouse, visual assessment vs untreated controls
In short: as §2

[10] = system: Echinocloa crus-galli; test: Herbicidal pre-emergence action; details: pre-emergence method, 80 g/ha, greenhouse, visual assessment vs untreated controls
In short: as §2

Cc1cc(C)c(C2=C(OC(=O)C(C)C)C3CC4(CC3C2=O)OCCCCO4)c(C)c1 (centres unmarked) [I-b-41]
herbicidal effect AVEFA [1]: 40%
herbicidal effect against AVEFA (Avena fatua) [2]: 0%
herbicidal effect against ALOMY (Alopecurus myosuroides) [3]: 40%
herbicidal effect against SETVI (Setaria viridis) [4]: 80%
herbicidal effect against LOLMU (Lolium multiflorum) [5]: 100%
herbicidal effect against ECHCG (Echinochloa crus-galli) [6]: 100%
herbicidal effect ALOMY [7]: 50%
herbicidal effect SETVI [8]: 50%
herbicidal effect LOLMU [9]: 100%
herbicidal effect ECHCG [10]: 0%

CCOC1COC2(CC3C(=O)C(c4c(CC)cc(C)cc4CC)=C(OC(=O)OC)C3C2)OC1 (centres unmarked) [I-c-27]
herbicidal effect AVEFA [1]: 80%
herbicidal effect against AVEFA (Avena fatua) [2]: 100%
herbicidal effect against ALOMY (Alopecurus myosuroides) [3]: 100%
herbicidal effect against SETVI (Setaria viridis) [4]: 100%
herbicidal effect against LOLMU (Lolium multiflorum) [5]: 100%
herbicidal effect against ECHCG (Echinochloa crus-galli) [6]: 100%
herbicidal effect ALOMY [7]: 100%
herbicidal effect SETVI [8]: 90%
herbicidal effect LOLMU [9]: 100%
herbicidal effect ECHCG [10]: 100%

C#CC(C)ON=C1CC2C(=O)C(c3c(CC)cc(C)cc3CC)=C(OC(=O)OCC)C2C1 (centres unmarked) [I-c-43]
herbicidal effect AVEFA [1]: 40%
herbicidal effect against AVEFA (Avena fatua) [2]: 0%
herbicidal effect against ALOMY (Alopecurus myosuroides) [3]: 100%
herbicidal effect against SETVI (Setaria viridis) [4]: 0%
herbicidal effect against LOLMU (Lolium multiflorum) [5]: 100%
herbicidal effect against ECHCG (Echinochloa crus-galli) [6]: 100%
herbicidal effect ALOMY [7]: 80%
herbicidal effect SETVI [8]: 0%
herbicidal effect LOLMU [9]: 80%
herbicidal effect ECHCG [10]: 80%

CCOC(=O)OC1=C(c2c(CC)cc(C)cc2CC)C(=O)C2CC3(CC12)OCC(OCC)CO3 (centres unmarked) [I-c-26]
herbicidal effect AVEFA [1]: 80%
herbicidal effect against AVEFA (Avena fatua) [2]: 100%
herbicidal effect against ALOMY (Alopecurus myosuroides) [3]: 100%
herbicidal effect against SETVI (Setaria viridis) [4]: 100%
herbicidal effect against LOLMU (Lolium multiflorum) [5]: 100%
herbicidal effect against ECHCG (Echinochloa crus-galli) [6]: 100%
herbicidal effect ALOMY [7]: 100%
herbicidal effect SETVI [8]: 100%
herbicidal effect LOLMU [9]: 100%
herbicidal effect ECHCG [10]: 100%

Cc1cc(C)c(C2=C([O-])C3CC4(CC3C2=O)OCC(C)CO4)c(C)c1.[Na+] (centres unmarked) [I-f-9]
herbicidal effect AVEFA [1]: 50%
herbicidal effect against AVEFA (Avena fatua) [2]: 90%
herbicidal effect against ALOMY (Alopecurus myosuroides) [3]: 80%
herbicidal effect against SETVI (Setaria viridis) [4]: 100%
herbicidal effect against LOLMU (Lolium multiflorum) [5]: 100%
herbicidal effect against ECHCG (Echinochloa crus-galli) [6]: 80%
herbicidal effect ALOMY [7]: 30%
herbicidal effect SETVI [8]: 50%
herbicidal effect LOLMU [9]: 100%
herbicidal effect ECHCG [10]: 60%

C=C1CC2C(=O)C(c3c(C)cc(C)cc3OC)=C(OC(=O)C(C)C)C2C1 (centres unmarked) [I-b-62]
herbicidal effect AVEFA [1]: 40%
herbicidal effect against AVEFA (Avena fatua) [2]: 0%
herbicidal effect against ALOMY (Alopecurus myosuroides) [3]: 30%
herbicidal effect against SETVI (Setaria viridis) [4]: 90%
herbicidal effect against LOLMU (Lolium multiflorum) [5]: 90%
herbicidal effect against ECHCG (Echinochloa crus-galli) [6]: 100%
herbicidal effect ALOMY [7]: 50%
herbicidal effect SETVI [8]: 80%
herbicidal effect LOLMU [9]: 70%
herbicidal effect ECHCG [10]: 70%

CCc1cc(C)cc(CC)c1C1=C(OC(C)=O)C2CC3(CC2C1=O)OCCO3 (centres unmarked) [I-b-18]
herbicidal effect AVEFA [1]: 70%
herbicidal effect against AVEFA (Avena fatua) [2]: 100%
herbicidal effect against ALOMY (Alopecurus myosuroides) [3]: 100%
herbicidal effect against SETVI (Setaria viridis) [4]: 100%
herbicidal effect against LOLMU (Lolium multiflorum) [5]: 100%
herbicidal effect against ECHCG (Echinochloa crus-galli) [6]: 100%
herbicidal effect ALOMY [7]: 100%
herbicidal effect SETVI [8]: 70%
herbicidal effect LOLMU [9]: 100%
herbicidal effect ECHCG [10]: 80%

CCc1cc(C)cc(CC)c1C1=C(OC(=O)OC)C2CC3(CC2C1=O)OCC(C)(C)CO3 (centres unmarked) [I-c-23]
herbicidal effect AVEFA [1]: 70%
herbicidal effect against AVEFA (Avena fatua) [2]: 100%
herbicidal effect against ALOMY (Alopecurus myosuroides) [3]: 100%
herbicidal effect against SETVI (Setaria viridis) [4]: 100%
herbicidal effect against LOLMU (Lolium multiflorum) [5]: 100%
herbicidal effect against ECHCG (Echinochloa crus-galli) [6]: 100%
herbicidal effect ALOMY [7]: 100%
herbicidal effect SETVI [8]: 100%
herbicidal effect LOLMU [9]: 100%
herbicidal effect ECHCG [10]: 100%

COc1cc(C)cc(C)c1C1=C([O-])C2CC3(CC2C1=O)OCCCCO3.[Na+] (centres unmarked) [I-f-5]
herbicidal effect AVEFA [1]: 70%
herbicidal effect against AVEFA (Avena fatua) [2]: 100%
herbicidal effect against ALOMY (Alopecurus myosuroides) [3]: 100%
herbicidal effect against SETVI (Setaria viridis) [4]: 100%
herbicidal effect against LOLMU (Lolium multiflorum) [5]: 100%
herbicidal effect against ECHCG (Echinochloa crus-galli) [6]: 100%
herbicidal effect ALOMY [7]: 90%
herbicidal effect SETVI [8]: 90%
herbicidal effect LOLMU [9]: 90%
herbicidal effect ECHCG [10]: 70%

CCc1cc(C)cc(CC)c1C1=C(OC(=O)OC)C2CC3(CC2C1=O)OCCCS3 (mixture of isomers) [I-c-32]
herbicidal effect AVEFA [1]: 70%
herbicidal effect against AVEFA (Avena fatua) [2]: 90%
herbicidal effect against ALOMY (Alopecurus myosuroides) [3]: 80%
herbicidal effect against SETVI (Setaria viridis) [4]: 80%
herbicidal effect against LOLMU (Lolium multiflorum) [5]: 90%
herbicidal effect against ECHCG (Echinochloa crus-galli) [6]: 90%
herbicidal effect ALOMY [7]: 80%
herbicidal effect SETVI [8]: 70%
herbicidal effect LOLMU [9]: 100%
herbicidal effect ECHCG [10]: 100%

CCc1cc(C)cc(CC)c1C1=C(OC(=O)C(C)(C)C)C2CC3(CC2C1=O)OCCCS3 (mixture of isomers) [I-b-20]
herbicidal effect AVEFA [1]: 90%
herbicidal effect against AVEFA (Avena fatua) [2]: 30%
herbicidal effect against ALOMY (Alopecurus myosuroides) [3]: 0%
herbicidal effect against SETVI (Setaria viridis) [4]: 0%
herbicidal effect against LOLMU (Lolium multiflorum) [5]: 60%
herbicidal effect against ECHCG (Echinochloa crus-galli) [6]: 100%
herbicidal effect ALOMY [7]: 100%
herbicidal effect SETVI [8]: 90%
herbicidal effect LOLMU [9]: 100%
herbicidal effect ECHCG [10]: 80%

COc1cc(C)cc(C)c1C1=C(O)C2CC3(CC2C1=O)OCCCCO3 (centres unmarked) [I-a-50]
herbicidal effect AVEFA [1]: 60%
herbicidal effect against AVEFA (Avena fatua) [2]: 100%
herbicidal effect against ALOMY (Alopecurus myosuroides) [3]: 100%
herbicidal effect against SETVI (Setaria viridis) [4]: 100%
herbicidal effect against LOLMU (Lolium multiflorum) [5]: 100%
herbicidal effect against ECHCG (Echinochloa crus-galli) [6]: 100%
herbicidal effect ALOMY [7]: 100%
herbicidal effect SETVI [8]: 70%
herbicidal effect LOLMU [9]: 100%
herbicidal effect ECHCG [10]: 80%

CCc1cc(C)cc(CC)c1C1=C(OC(=O)OC(C)C)C2CC3(CC2C1=O)OCCS3 (mixture of isomers) [I-c-33]
herbicidal effect AVEFA [1]: 90%
herbicidal effect against AVEFA (Avena fatua) [2]: 90%
herbicidal effect against ALOMY (Alopecurus myosuroides) [3]: 80%
herbicidal effect against SETVI (Setaria viridis) [4]: 80%
herbicidal effect against LOLMU (Lolium multiflorum) [5]: 90%
herbicidal effect against ECHCG (Echinochloa crus-galli) [6]: 100%
herbicidal effect ALOMY [7]: 90%
herbicidal effect SETVI [8]: 60%
herbicidal effect LOLMU [9]: 100%
herbicidal effect ECHCG [10]: 90%

CCOC(=O)OC1=C(c2c(C)cc(C)cc2OC)C(=O)C2CC3(CC12)OCC=CCO3 (racemic) [I-c-65]
herbicidal effect AVEFA [1]: 60%
herbicidal effect against AVEFA (Avena fatua) [2]: 100%
herbicidal effect against ALOMY (Alopecurus myosuroides) [3]: 100%
herbicidal effect against SETVI (Setaria viridis) [4]: 100%
herbicidal effect against LOLMU (Lolium multiflorum) [5]: 100%
herbicidal effect against ECHCG (Echinochloa crus-galli) [6]: 100%
herbicidal effect ALOMY [7]: 100%
herbicidal effect SETVI [8]: 90%
herbicidal effect LOLMU [9]: 100%
herbicidal effect ECHCG [10]: 80%

CCc1cc(C)cc(CC)c1C1=C(OC(=O)C(C)(C)C)C2CC3(COC(C)(C)O3)CC2C1=O (centres unmarked) [I-b-8]
herbicidal effect AVEFA [1]: 80%
herbicidal effect against AVEFA (Avena fatua) [2]: 70%
herbicidal effect against ALOMY (Alopecurus myosuroides) [3]: 90%
herbicidal effect against SETVI (Setaria viridis) [4]: 60%
herbicidal effect against LOLMU (Lolium multiflorum) [5]: 100%
herbicidal effect against ECHCG (Echinochloa crus-galli) [6]: 80%
herbicidal effect ALOMY [7]: 100%
herbicidal effect SETVI [8]: 90%
herbicidal effect LOLMU [9]: 100%
herbicidal effect ECHCG [10]: 90%

COc1cc(C)cc(C)c1C1=C(O)C2CC3(CC2C1=O)OCCO3 (centres unmarked) [I-a-48]
herbicidal effect AVEFA [1]: 60%
herbicidal effect against AVEFA (Avena fatua) [2]: 90%
herbicidal effect against ALOMY (Alopecurus myosuroides) [3]: 80%
herbicidal effect against SETVI (Setaria viridis) [4]: 100%
herbicidal effect against LOLMU (Lolium multiflorum) [5]: 100%
herbicidal effect against ECHCG (Echinochloa crus-galli) [6]: 100%
herbicidal effect ALOMY [7]: 80%
herbicidal effect SETVI [8]: 70%
herbicidal effect LOLMU [9]: 80%
herbicidal effect ECHCG [10]: 40%

CCc1cc(C)cc(CC)c1C1=C(OC(C)=O)C2CC3(CC2C1=O)OCCCO3 (centres unmarked) [I-b-23]
herbicidal effect AVEFA [1]: 70%
herbicidal effect against AVEFA (Avena fatua) [2]: 100%
herbicidal effect against ALOMY (Alopecurus myosuroides) [3]: 100%
herbicidal effect against SETVI (Setaria viridis) [4]: 100%
herbicidal effect against LOLMU (Lolium multiflorum) [5]: 100%
herbicidal effect against ECHCG (Echinochloa crus-galli) [6]: 100%
herbicidal effect ALOMY [7]: 90%
herbicidal effect SETVI [8]: 50%
herbicidal effect LOLMU [9]: 100%
herbicidal effect ECHCG [10]: 100%
